Molecules are shown by their SMILES.

The series in a line: gradient 5% acetonitrile 3 min, to 50% in 2 min, to 85% in 15 min, held 3 min, 100 µL/min. Conditions: column: Zorbax Extend-C18 2.1 x 50 mm; eluents: water / acetonitrile, 0.1% formic acid. The gist of the method:
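Retention time was recorded from adduct peaks, which were picked computationally and each inspected manually. Pure standards ran in mixtures of ~100 molecules on HPLC coupled to a quadrupole time-of-flight mass spectrometer, in positive and negative ionization mode, through a Zorbax Extend-C18 column (2.1 × 50 mm, 1.8 μm) at 100 μL/min. Eluents were water and acetonitrile, each with 0.1% formic acid.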
In the case of `Cc1ccc(C2CC(=O)c3cnc(Nc4nc(C)c5ccccc5n4)nc3C2)cc1` (stereo unspecified), the RP-LC retention time came out at 772 s.

For the molecule `O=C(Nc1ccc(C(F)(F)F)cc1)NC1CCN(c2ccc(F)cc2)C1=O` (stereo unspecified), the RP-LC retention time was 920 s. Regarding `COc1cccc(S(=O)(=O)N2CCC(OCCOCc3ccccc3)CC2)c1`, the RP-LC retention time was found to be 678 s. Next, `Cc1csc(NC(=O)CSc2ccc(-c3cccnc3)nn2)n1`: 589 s.

In turn, `Cc1cc(NCc2ccccn2)nc(-n2cc([N+](=O)[O-])cn2)n1` displayed an RP-LC retention time of 564 s. `CC1CCN(C(=O)C2CCN(S(=O)(=O)c3cc(C(=O)N4CCCCC4)n(C)c3)CC2)CC1`: the RP-LC retention time was determined as 803 s. `COc1ccc(-c2nc(CNC(=O)c3coc(-c4ccccc4)n3)no2)cc1` registered an RP-LC retention time of 950 s. Consider `O=C(C1CCN(S(=O)(=O)N2CCOCC2)CC1)N1CCCC(c2nc(C3CCOCC3)no2)C1` (stereo unspecified), for which the RP-LC retention time was found to be 700 s. `COc1cccc(N2CCN(C(=O)c3[nH]c(C)c(S(=O)(=O)N4CCOCC4)c3C)CC2)c1` showed an RP-LC retention time of 772 s. Regarding `CCn1cc(-c2nc(C(=O)Nc3ccc(F)cc3Cl)cs2)c2cccnc21`, the RP-LC retention time is 1350 s.

`Cc1ccc(C)c(S(=O)(=O)N2CCc3c(c(-c4nnc(-c5ccccc5)o4)nn3C)C2)c1` gave an RP-LC retention time of 1020 s. The molecule `O=C(C1=CN(c2cccc(Cl)c2)c2cc(F)ccc2S1(=O)=O)N1CCCC1` came in with an RP-LC retention time of 868 s.

In turn, `CCS(=O)(=O)N1CC(=O)N(c2ccc(F)cc2)C(C)(C(=O)NCc2ccccc2)C1` (stereo unspecified) came in with an RP-LC retention time of 778 s.

The molecule `O=C(NCc1ccc2c(c1)OCO2)C1CCCN(c2cnc3nccnc3c2)C1` (stereo unspecified) yielded an RP-LC retention time of 666 s. Molecule `Cc1ccccc1Cn1cccc1CNC(=O)Nc1ccc2c(c1)OCO2` gave an RP-LC retention time of 931 s. Regarding `O=C(c1cc(-c2ccncc2)n[nH]1)N1CCN(C(=O)c2ccc(Br)o2)CC1`, the RP-LC retention time is 590 s. `O=C(COc1ccc(F)cc1)N1CCN(C(=O)c2nnn3c2COC(c2ccc(Cl)cc2)C3)CC1` (stereo unspecified) displayed an RP-LC retention time of 937 s. As for `O=C(Cn1ncccc1=O)NCc1ccco1`, the RP-LC retention time is 542 s.

In the case of `O=C(c1nc(-c2cccs2)cs1)N1CCN(c2ccccc2)CC1`, the RP-LC retention time came out at 1130 s. In turn, `Cc1ccc(-n2nc(C)c(S(=O)(=O)N3CCC(C(=O)NC4CC4)CC3)c2C)cc1` showed an RP-LC retention time of 789 s. In the case of `Cc1ccc(NC(=O)N2CCCC(C)(C(=O)NCc3ccc(F)cc3)C2)c(C)c1` (stereo unspecified), the RP-LC retention time is 949 s.

`COc1ccc(S(=O)(=O)N2CCC(n3cnnc3C)CC2)cc1Cl` gave an RP-LC retention time of 694 s. `CCn1cc(CCNC(=O)Nc2ccccc2OC)c2cccnc21` had an RP-LC retention time of 718 s.

The molecule `Cc1ccc2c(c1)OCC(=O)N2Cc1nc(-c2ccccc2)no1` displayed an RP-LC retention time of 1040 s. The molecule `CCc1nc(-c2nnn(-c3ccc(F)cc3)c2C)no1` showed an RP-LC retention time of 874 s.

`CC(C)Cn1c(=O)c(N2CCN(S(=O)(=O)c3ccccc3F)CC2)nc2ccncc21` registered an RP-LC retention time of 743 s. Regarding `Cc1ccc(S(=O)(=O)NCc2c(-c3ccccc3)nc3sc(C)nn23)cc1`, the RP-LC retention time stood at 858 s. `CNC(=O)C1CCCN(c2nc3ncn(CC(=O)NCc4ccccc4Cl)c(=O)c3s2)C1` (stereo unspecified) displayed an RP-LC retention time of 664 s. With `CCc1ccc2nc(C)cc(C(=O)NC(C)C)c2c1`, the RP-LC retention time amounted to 621 s.

In turn, `Clc1ccccc1N1CCN(c2cc(-c3nc(-c4ccccc4)no3)c3ccccc3n2)CC1` came in with an RP-LC retention time of 1130 s. The result for `Cc1ccc2nc(-c3ccccc3F)cc(C(N)=O)c2c1` reads 778 s. With `COC(=O)C1=CN(c2cccc(C#N)c2)c2cc(F)ccc2S1(=O)=O`, the RP-LC retention time is 763 s. The result for `CSc1ccc(CNC(=O)CN2CCc3[nH]c4c(C)c(C)ccc4c(=O)c3C2)cc1` reads 638 s. `CCN1CCN(C(=O)Cc2c(C(=O)O)c(C)cn2CC)CC1` gave an RP-LC retention time of 568 s. Molecule `CC1CCC(NC(=O)C2CCN(C(=O)c3cc(-c4ccncc4)n[nH]3)CC2)CC1` (stereo unspecified) gave an RP-LC retention time of 624 s. Next, `Cc1ccc(C)c(Sc2ccc(N3CCC(C(=O)NCc4ccco4)CC3)nn2)c1`: 818 s. With `COc1ccc(S(=O)(=O)c2csc3c2NC(=O)CC3c2ccsc2)cc1` (stereo unspecified), the RP-LC retention time is 892 s.

Regarding `Nc1ccc(NC(=O)c2ccc(C(F)(F)F)cc2)nc1`, the RP-LC retention time stood at 693 s. The molecule `Cc1ccc(NC(=O)C2CC(=O)N(c3cccc(NC(=O)C4CCC4)c3)C2)cc1Cl` (stereo unspecified) came in with an RP-LC retention time of 914 s. Regarding `Cc1ccc(-c2nc3ccccn3c2NC(=O)NCc2ccccc2)cc1`, the RP-LC retention time stood at 657 s. Next, `COc1cccc(CNC(=O)C2(C)CCN(C(=O)NCC3CCCO3)CC2)c1` (stereo unspecified): 668 s. `CCOC(=O)CCC(=O)Nc1ccc(-c2nnc(N(C)c3ccccc3)s2)cc1`: the RP-LC retention time was 702 s.

`COc1cccc(CN2CCC3(CC2)CC(O)CCO3)c1OC` (stereo unspecified) returned an RP-LC retention time of 582 s. Next, `O=C(Cn1ncc2c(c1=O)N(C1CC1)C(=O)CS2)NCCc1ccc(Cl)cc1`: 755 s; `O=C(Cn1nc(C2CC2)cc1C(=O)N1CCCC1)N1CCN(c2ccc(Cl)cc2)CC1`: 845 s. Next, `O=C(Nc1cc(F)ccc1F)C1CCN(S(=O)(=O)c2cccnc2)CC1`: 784 s. `COc1ccc(NC(=O)C2CCN(S(=O)(=O)c3cc4c(cc3C)NC(=O)CO4)CC2)cc1` showed an RP-LC retention time of 754 s. For `O=C(Nc1cc(F)ccc1Cl)c1csc(-c2ccc(N3CCCC3)nc2)n1`, the RP-LC retention time worked out at 994 s. Turning to `COc1ccc(Nc2c(C(=O)N3CCCC(C)C3)cnc3nc(C)ccc23)cc1` (stereo unspecified), the RP-LC retention time turned out to be 650 s. With `COC(=O)Nc1ccc2[nH]cc(CCNC(C)=O)c2c1`, the RP-LC retention time came to 673 s. Consider `O=C1NCCN2CC3(CCN(S(=O)(=O)Cc4ccccc4)CC3)CC12` (stereo unspecified), for which the RP-LC retention time was determined as 594 s. `CC(NC(=O)c1ccc(OC(F)(F)F)cc1)C(=O)N1CCN(c2ccccn2)CC1` (stereo unspecified): the RP-LC retention time was determined as 643 s.

The molecule `Cc1cc(C)c(CNS(=O)(=O)c2cc(-c3nc(C)c(C)s3)cs2)c(C)c1` showed an RP-LC retention time of 1310 s.

In the case of `CCn1ccc(C(=O)N2CCCC2c2ccc(OC)cc2)n1` (stereo unspecified), the RP-LC retention time was 795 s.

For the molecule `COc1ccc(-c2noc(C3CC(=O)N(c4ccc(C)c(C)c4)C3)n2)cc1OC` (stereo unspecified), the RP-LC retention time worked out at 928 s.

As to `Cc1sc2ccn(C)c(=O)c2c1C(=O)NCc1ccccc1Cl`, the RP-LC retention time is 798 s. In turn, `O=C(NCCc1ccccc1)C1CC(=O)N(CCc2c[nH]c3ccc(F)cc23)C1` (stereo unspecified) had an RP-LC retention time of 867 s. In turn, `Cn1nccc1-c1cccc(-c2noc(-c3cccc(F)c3)n2)c1` gave an RP-LC retention time of 1150 s. For the molecule `CN1CCN(S(=O)(=O)c2ccc(C3CCCCC3)cc2)CC1`, the RP-LC retention time was 616 s. With `CCOc1ccccc1C(=O)Nc1c(-c2ccc(F)cc2)nc2ccccn12`, the RP-LC retention time worked out at 719 s.

In turn, `COc1ccc(OC)c(NC(=O)NCC(=O)N2CCc3ccccc32)c1` registered an RP-LC retention time of 804 s.

For `COCCNC(=O)C1CCN(C2=NS(=O)(=O)C(c3ccc(Cl)cc3)=C2C)CC1`, the RP-LC retention time came to 725 s. `CO[C@H]1C(=O)N(C(C)C)[C@H]1C1CCN(C(=O)C2CC2)CC1` yielded an RP-LC retention time of 657 s. `COc1cccc(C(O)CN2CCN(c3ccccc3C)CC2)c1` (stereo unspecified): the RP-LC retention time was 691 s. On to `CCC(CO)Nc1ncnc2c1cnn2-c1ccc(C)c(Cl)c1` (stereo unspecified), for which the RP-LC retention time is 761 s.

Take `O=C(CC1CCN(C(=O)c2ccc3oc(-c4ccccc4)nc3c2)CC1)N1CCCC1`: the RP-LC retention time was 782 s. The molecule `COc1ccc(NC(=O)C2CCCN(c3nccnc3Sc3ccccc3)C2)cc1` (stereo unspecified) came in with an RP-LC retention time of 1030 s. The result for `Cc1cccc(Cn2nnc(C(=O)O)c2-c2cccnc2)c1` reads 669 s; that for `COc1ccc(-c2ccc3nc(N4CCC(C(=O)NCCN(C)C)CC4)sc3n2)cc1`, 665 s; that for `CCOc1ccccc1CNC1CCN(c2ccc(C(=O)NC3CC3)cn2)C1` (stereo unspecified), 579 s. Molecule `COc1ccc(C(C)NC(=O)Cn2c(=O)n(-c3ccccc3)c3ncccc32)cc1OC` (stereo unspecified) yielded an RP-LC retention time of 741 s.

For the molecule `Cc1ccn2cc(-c3ccc(NC(=O)c4ccc5ccccc5c4)cc3)nc2n1`, the RP-LC retention time was 710 s. Turning to `CCn1ccc(C(=O)N2CCCC2(CO)Cc2ccccc2)n1` (stereo unspecified), the RP-LC retention time stood at 790 s. In turn, `c1ccc(-c2noc(-c3ccccc3OC3CCN(Cc4nccs4)C3)n2)cc1` (stereo unspecified) showed an RP-LC retention time of 750 s. Next, `Cc1cccn2cc(C(=O)NCCC3=CCCCC3)nc12`: 860 s; `COc1ccc(N2CC(c3noc(-c4ccc(Cl)cc4)n3)CC2=O)cc1` (stereo unspecified): 990 s; `CC1(C)[C@@H]2CC[C@@]1(C(=O)O)C(=O)C2`: 717 s. As to `CCc1nc(-c2ccc3c(c2)CCN3C(=O)COc2ccccc2)no1`, the RP-LC retention time came to 988 s. `O=C(CCNc1cnc2cnccn12)Nc1ccc(N2CCOCC2)cc1`: the RP-LC retention time was 534 s. Molecule `COCCn1c(C2CCN(S(=O)(=O)c3ccc(Cl)cc3)C2)nc2cccnc21` (stereo unspecified) showed an RP-LC retention time of 806 s. Molecule `O=C(Nc1cnc(N2CCOCC2)nc1)c1ccc(Br)cc1` gave an RP-LC retention time of 810 s.
